Measurements as given in patent publication US7700624B2, “3-aminocyclopentanecrboxamides as modulators of chemokine receptors” (Incyte Corporation, priority 2005, dated 2010).

Target: T1, CCR2 (Homo sapiens, UniProt P41597)
T1 construct: Peripheral Blood Mononuclear Cells (PBMCs) prepared from normal human whole blood via density gradient centrifugation; endogenous in cells; host or cells: human PBMCs from normal whole blood
T1 sequence (P41597 1-360 isoform P41597-2): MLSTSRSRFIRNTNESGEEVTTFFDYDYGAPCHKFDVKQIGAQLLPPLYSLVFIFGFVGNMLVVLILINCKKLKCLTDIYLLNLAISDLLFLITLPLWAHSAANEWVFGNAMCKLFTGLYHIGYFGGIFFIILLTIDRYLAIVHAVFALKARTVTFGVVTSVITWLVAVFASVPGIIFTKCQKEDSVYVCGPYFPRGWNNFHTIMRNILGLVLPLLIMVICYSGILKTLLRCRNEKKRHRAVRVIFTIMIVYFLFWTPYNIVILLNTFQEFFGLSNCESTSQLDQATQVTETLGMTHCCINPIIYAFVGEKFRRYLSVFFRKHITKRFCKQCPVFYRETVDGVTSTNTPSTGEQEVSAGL
Assay: CCR2 binding assay: 125I-labeled MCP-1 binding to human PBMCs
Settings: inhibition of specific binding of 0.1 to 0.2 nM 125I-labeled MCP-1 to human PBMCs, 30 min at room temperature
Source text: The CCR2 antagonist activity of compounds of the invention can be reported as the inhibitor concentration required for 50% inhibition (IC50 values) of specific binding in receptor binding assays using ^125I-labeled MCP-1, as ligand, and Peripheral Blood Mononuclear Cells (PBMCs) prepared from normal human whole blood via density gradient centrifugation. Specific binding is preferably defined as the total binding (e.g., total cpm on filters) minus the non-specific binding. Non-specific binding is defined as the amount of cpm still detected in the presence of excess unlabeled competitor (e.g., MCP-1).
Human PBMCs are used to test compounds of the invention in a binding assay. For example, 200,000 to 500,000 cells are incubated with 0.1 to 0.2 nM ^125I-labeled MCP-1, with or without unlabeled competitor (10 nM MCP-1) or various concentrations of compounds to be tested. ^125I-labeled MCP-1, are prepared by suitable methods or purchased from commercial vendors (Perkin Elmer, Boston Mass.). The binding reactions are performed in 50 to 250 μL of a binding buffer consisting of […] pH 7.2, and 0.1% BSA (bovine serum albumin), for 30 min at room temperature. The binding reactions are terminated by harvesting the membranes by rapid filtration through glass fiber filters (Perkin Elmer) which is presoaked in 0.3% polyethyleneimine or Phosphate Buffered Saline (PBS). The filters were rinsed with approximately 600 μL of binding buffer containing 0.5 M NaCl or PBS, then dried, and the amount of bound radioactivity is determined by counting on a Gamma Counter (Perkin Elmer).

Row | Structure (SMILES) | IC50
1 | CC(C)NC(=O)CCC1CCCC1N[C@@H]1CC[C@@](C(=O)N2CCN(c3cc(C(F)(F)F)ccn3)CC2)(C(C)C)C1 (stereo partly drawn) [Example 13, N-isopropyl-3-(2-{[(1R,3S)-3-isopropyl-3-({4-[4-(trifluoromethyl)pyridin-2-yl]piperazin-1-yl}carbonyl)cyclopentyl]amino}cyclopentyl)propanamide] | 273 nM
2 | CC#CCN1CCC(N[C@@H]2CC[C@@](C(=O)N3CCN(c4cc(C(F)(F)F)ccn4)CC3)(C(C)C)C2)CCC1=O (mixture of isomers) [Example 12, 1-but-2-yn-1-yl-5-{[(1R,3S)-3-isopropyl-3-({4-[4-(trifluoromethyl)pyridin-2-yl]piperazin-1-yl}carbonyl)cyclopentyl]amino}azepan-2-one] | 660 nM
3 | COc1ccc(CN[C@@H]2CC[C@@](C(=O)N3CCN(c4cc(C(F)(F)F)ccn4)CC3)(C(C)C)C2)cc1O [Example 29, 5-({[(1R,3S)-3-isopropyl-3-({4-[4-(trifluoromethyl)pyridin-2-yl]piperazin-1-yl}carbonyl)cyclopentyl]amino}methyl)-2-methoxyphenol] | 736 nM
4 | CC(C)[C@]1(C(=O)N2CCN(c3cc(C(F)(F)F)ccn3)CC2)CC[C@@H](NC2CCc3ccccc3C2)C1 (mixture of isomers) [Example 19, N-[(1R,3S)-3-isopropyl-3-({4-[4-(trifluoromethyl)pyridin-2-yl]piperazin-1-yl}carbonyl)cyclopentyl]-1234-tetrahydronaphthalen-2-amine] | 138 nM
5 | CC(C)[C@]1(C(=O)N2CCN(c3cc(C(F)(F)F)ccn3)CC2)CC[C@@H](NC2CCCC2)C1 [Example 16, (1R,3S)-N-cyclopentyl-3-isopropyl-3-({4-[4-(trifluoromethyl)pyridin-2-yl]piperazin-1-yl}carbonyl)cyclopentanamine] | 227 nM
6 | CC(C)[C@]1(C(=O)N2CCN(c3cc(C(F)(F)F)ccn3)CC2)CC[C@@H](NCc2ccc(F)cc2)C1 [Example 28, (1R,3S)-N-(4-fluorobenzyl)-3-isopropyl-3-({4-[4-(trifluoromethyl)pyridin-2-yl]piperazin-1-yl}carbonyl)cyclopentanamine] | 389 nM
7 | CC(C)[C@]1(C(=O)N2CCN(c3cc(C(F)(F)F)ccn3)CC2)CC[C@@H](NC2CCc3cc(F)cc(F)c3C2)C1 (mixture of isomers) [Example 18, 6,8-difluoro-N-[(1R,3S)-3-isopropyl-3-({4-[4-(trifluoromethyl)pyridin-2-yl]piperazin-1-yl}carbonyl)cyclopentyl]-1234-tetrahydronaphthalen-2-amine] | 51.7 nM
8 | COc1ccc(CN[C@@H]2CC[C@@](C(=O)N3CCN(c4cc(C(F)(F)F)ccn4)CC3)(C(C)C)C2)cc1OC [Example 25, (1R,3S)-N-(34-dimethoxybenzyl)-3-isopropyl-3-({4-[4-(trifluoromethyl)pyridin-2-yl]piperazin-1-yl}carbonyl)cyclopentanamine] | 500 nM
9 | CCn1cc(CN[C@@H]2CC[C@@](C(=O)N3CCN(c4cc(C(F)(F)F)ccn4)CC3)(C(C)C)C2)cn1 [Example 7, (1R,3S)-N-[(1-ethyl-1H-pyrazol-4-yl)methyl]-3-isopropyl-3-({4-[4-(trifluoromethyl)pyridin-2-yl]piperazin-1-yl}carbonyl)cyclopentanamine] | 617 nM
10 | CC(C)[C@]1(C(=O)N2CCN(c3cc(C(F)(F)F)ccn3)CC2)CC[C@@H](NCc2ccc(O)cc2)C1 [Example 27, 4-({[(1R,3S)-3-isopropyl-3-({4-[4-(trifluoromethyl)pyridin-2-yl]piperazin-1-yl}carbonyl)cyclopentyl]amino}methyl)phenol] | 470 nM
11 | CC(C)[C@]1(C(=O)N2CCN(c3cc(C(F)(F)F)ccn3)CC2)CC[C@@H](NCc2ccc(Cl)s2)C1 [Example 5, (1R,3S)-N-[(5-chloro-2-thienyl)methyl]-3-isopropyl-3-({4-[4-(trifluoromethyl)pyridin-2-yl]piperazin-1-yl}carbonyl)cyclopentanamine] | 616 nM
12 | CC(C)[C@]1(C(=O)N2CCN(c3cc(C(F)(F)F)ccn3)CC2)CC[C@@H](NCc2ccc3[nH]ccc3c2)C1 [Example 26, (1R,3S)-N-(1H-indol-5-ylmethyl)-3-isopropyl-3-({4-[4-(trifluoromethyl)pyridin-2-yl]piperazin-1-yl}carbonyl)cyclopentanamine] | 273 nM
13 | CC(C)[C@]1(C(=O)N2CCN(c3cc(C(F)(F)F)ccn3)CC2)CC[C@@H](NC2CCS(=O)(=O)CC2)C1 [Example 15, N-[(1R-3S)-3-isopropyl-3-({4-[4-(trifluoromethyl)pyridin-2-yl]piperazin-1-yl}carbonyl)cyclopentyl]tetrahydro-2H-thiopyran-4-amine 11-dioxide] | 541 nM
14 | CC(C)[C@]1(C(=O)N2CCN(c3cc(C(F)(F)F)ccn3)CC2)CC[C@@H](N(C)C2CCOC2)C1 (stereo partly drawn) [Example 24, N-[(1R,3S)-3-isopropyl-3-({4-[4-(trifluoromethyl)pyridin-2-yl]piperazin-1-yl}carbonyl)cyclopentyl]—N-methyltetrahydrofuran-3-amine] | 181 nM
15 | CC(C)[C@]1(C(=O)N2CCN(c3cc(C(F)(F)F)ccn3)CC2)CC[C@@H](NC2CCCN(c3ncccn3)C2)C1 (mixture of isomers) [Example 11, N-[(1R,3S)-3-isopropyl-3-({4-[4-(trifluoromethyl)pyridin-2-yl]piperazin-1-yl}carbonyl)cyclopentyl]-1-pyrimidin-2-ylpiperidin-3-amine] | 420 nM
16 | CC1COCC(C)C1N[C@@H]1CC[C@@](C(=O)N2CCN(c3cc(C(F)(F)F)ccn3)CC2)(C(C)C)C1 (stereo partly drawn) [Example 21, N-[(1R,3S)-3-isopropyl-3-({4-[4-(trifluoromethyl)pyridin-2-yl]piperazin-1-yl}carbonyl)cyclopentyl]-35-dimethyltetrahydro-2H-pyran-4-amine] | 10.1 nM
17 | CC(C)[C@]1(C(=O)N2CCN(c3cc(C(F)(F)F)ccn3)CC2)CC[C@@H](NC2Cc3ccccc3C2)C1 [Example 14, N-[(1R,3S)-3-isopropyl-3-({4-[4-(trifluoromethyl)pyridin-2-yl]piperazin-1-yl}carbonyl)cyclopentyl]indan-2-amine] | 74.8 nM
18 | CC1OCCC1N[C@@H]1CC[C@@](C(=O)N2CCN(c3cc(C(F)(F)F)ccn3)CC2)(C(C)C)C1 (stereo partly drawn) [Example 20, 2,5-anhydro-1,3,4-trideoxy-3-{[(1R,3S)-3-isopropyl-3-({4-[4-(trifluoromethyl)pyridin-2-yl]piperazin-1-yl}carbonyl)cyclopentyl]amino}pentitol] | 80.6 nM
19 | COc1cc(CN[C@@H]2CC[C@@](C(=O)N3CCN(c4cc(C(F)(F)F)ccn4)CC3)(C(C)C)C2)ccc1C [Example 31, (1R,3S)-3-isopropyl-N-(3-methoxy-4-methylbenzyl)-3-({4-[4-(trifluoromethyl)pyridin-2-yl]piperazin-1-yl}carbonyl)cyclopentanamine] | 334 nM
20 | CCCNC(=O)CCC1CCCC1N[C@@H]1CC[C@@](C(=O)N2CCN(c3cc(C(F)(F)F)ccn3)CC2)(C(C)C)C1 (stereo partly drawn) [Example 17, 3-(2-{[(1R,3S)-3-isopropyl-3-({4-[4-(trifluoromethyl)pyridin-2-yl]piperazin-1-yl}carbonyl)cyclopentyl]amino}cyclopentyl)-N-propylpropanamide] | 190 nM
21 | CC(CCn1cccn1)N[C@@H]1CC[C@@](C(=O)N2CCN(c3cc(C(F)(F)F)ccn3)CC2)(C(C)C)C1 (mixture of isomers) [Example 22, (1R,3S)-3-isopropyl-N-[1-methyl-3-(1H-pyrazol-1-yl)propyl]-3-({4-[4-(trifluoromethyl)pyridin-2-yl]piperazin-1-yl}carbonyl)cyclopentanamine] | 504 nM
22 | CC(C)[C@]1(C(=O)N2CCN(c3cc(C(F)(F)F)ccn3)CC2)CC[C@@H](NCc2cnc3c(c2)NC(=O)CO3)C1 [Example 9, 7-({[(1R,3S)-3-isopropyl-3-({4-[4-(trifluoromethyl)pyridin-2-yl]piperazin-1-yl}carbonyl)cyclopentyl]amino}methyl)-1H-pyrido[23-b][14]oxazin-2(3H)-one] | 338 nM
23 | CC(C)[C@]1(C(=O)N2CCN(c3cc(C(F)(F)F)ccn3)CC2)CC[C@@H](NC2CCOC2)C1 (mixture of isomers) [Example 23, N-[(1R-3S)-3-isopropyl-3-({4-[4-(trifluoromethyl)pyridin-2-yl]piperazin-1-yl}carbonyl)cyclopentyl]tetrahydrofuran-3-amine] | 157 nM
